Values quoted from earlier work as cited in EP4796171A2 (Zealand Pharma A/S, priority 2017, dated 2018).

Conditions: background statement; cited from earlier work

CC[C@H](C)[C@H](NC(=O)[C@H](Cc1ccccc1)NC(=O)[C@H](CC(=O)O)NC(=O)[C@H](CCCNC(=N)N)NC(=O)[C@H](C)NC(=O)[C@H](C)NC(=O)[C@H](CC(C)C)NC(=O)[C@H](CC(N)=O)NC(=O)[C@H](CC(=O)O)NC(=O)[C@H](CC(C)C)NC(=O)[C@@H](NC(=O)[C@@H](NC(=O)[C@H](CC(N)=O)NC(=O)[C@H](CCSC)NC(=O)[C@H](CCC(=O)O)NC(=O)[C@H](CC(=O)O)NC(=O)[C@H](CO)NC(=O)[C@H](Cc1ccccc1)NC(=O)[C@H](CO)NC(=O)CNC(=O)[C@H](CC(=O)O)NC(=O)CNC(=O)[C@@H](N)Cc1c[nH]cn1)[C@@H](C)O)[C@@H](C)CC)C(=O)N[C@@H](CC(N)=O)C(=O)N[C@@H](Cc1c[nH]c2ccccc12)C(=O)N[C@@H](CC(C)C)C(=O)N[C@H](C(=O)N[C@@H](CCC(N)=O)C(=O)N[C@H](C(=O)N[C@@H](CCCCN)C(=O)N[C@H](C(=O)N[C@H](C(=O)N[C@@H](CC(=O)O)C(=O)O)[C@@H](C)O)[C@@H](C)CC)[C@@H](C)O)[C@@H](C)CC [Teduglutide]
Half-life: about two
